In patent publication US20050215548A1 (Cyclacel Limited, priority 2002, published 2005):
Read-outs that look alike come from different tables or passages of the source.

Legend:
H1299 cells = experiment: Caspase activity (casp ACE assay), H1299; format: cell-based, human; conditions: five times the IC50
Procedure: In more detail: (A) Cells were treated with […] [IC50] of compound 2 or cisplatinum and collected at the time points indicated. Cell lysates were prepared, the caspase activity was determined using the casp ACE assay and values were plotted on a graph. (B) Cells were treated with 5 times [IC50] of compound 2 or cisplatinum and collected at the time points indicated. AGS cells were also incubated with compound 2 in the presence of a caspase inhibitor Z-VAD.fmk. Cell lysates were prepared, the caspase activity was determined using the casp ACE assay and values were plotted on a graph.
To characterise the apoptosis-inducing properties of bisarylsulfonamides caspase ⅓ activty was measured. AGS or H1299 cells were treated with a low concentration of compound 2 or cisplatin corresponding to twice the IC50 value (FIG. 6A). Morphological changes were detected in 10-20% of cells by 72 hours corresponding to an induction of caspase activity first detected at 48 hours, increasing by 72 hours. We also treated AGS and H1299 cells with higher concentrations corresponding to five times the IC50 (FIG. 6B). In this experiment we included a […], Z-VAD.fmk to determine the caspase responsible.

[1] = test system: AGS, H1299, MCF7 or SJSA1 cells; experiment: Cell morphology (cell rounding); format: cell-based, human; conditions: five times IC50
From the text: Equal amounts of cell lysate were separated by SDS-PAGE and analysed by immunoblotting using the indicated antibodies. An estimation of the extent of cell rounding is indicated above each lane. The arrow indicates the position of a 85-kDa cleavage product of PARP, indicative of apoptosis. (B) The effect of compound 2 on the levels of the cell cycle proteins in AGS cells (wild-type 53). […] Equal amounts of cell lysate were separated by SDS-PAGE and analysed by immunoblotting using the indicated antibodies. An estimation of the extent of cell rounding is indicated above each lane. (C) The effect of negative control compound (refer Example 10), compound 2, cisplatin, and anisomycin on the levels of key proteins in MCF7 cells. […] Cisplatinum and anisomycin (a transcription inhibitor) treatments were with 50 μM or 37 μM, respectively. Cells were harvested at various time points; afterwards lysates were prepared and separated by SDS-PAGE and analysed by immunoblotting. The proteins detected are indicated. The extent of rounded or floating cells and the percentage viable cells were assessed. […] Equal amounts of cell lysate were separated by SDS-PAGE and analysed by immunoblotting using a range of antibodies. An estimation of the extent of cell rounding is indicated above each lane. […] SJSA1 cells were treated with 5 times [IC50] of compound 2 and collected at the indicated time points. Equal amounts of cell lysate were separated by SDS-PAGE and analysed by immunoblotting using a range of antibodies. An estimation of the extent of cell rounding is indicated above each lane.
Cells were treated with 5 times [IC50] of compound 2 and collected at various time points. The percentage of rounded cells was counted before cells were trypsinised and counted for cell viability using trypan blue.
Cells were lysed and equal amounts were analysed by SDS-polyacrylamide gel electrophoresis (SDS-PAGE) and immunoblotting. […] The reduction in E2F-1 levels correlated with reduction in E2F transcriptional activity as determined by an E2F-dependent luciferase reporter assay (refer Example 6).

HCT116 = experiment: 72-h MTT cytotoxicity assay, HCT116; format: cell-based; conditions: Homo sapiens, HCT-116, 72 h; HCT116, Colon carcinoma; read-out: Anti-proliferative activity, 72-h MTT IC50
Procedure: (§1) Representative bisarylsulfonamide compounds were tested on a panel of transformed and non-transformed human cell lines, using a standard 72-h MTT cytotoxicity assay [Haselsberger K et al, ibid].

Saos-2 = experiment: 72-h MTT cytotoxicity assay, Saos-2; format: cell-based; conditions: Homo sapiens, Saos-2, Osteosracoma, read-out: Anti-proliferative activity, 72-h MTT IC50
Procedure: as §1

IMR90 = experiment: 72-h MTT cytotoxicity assay, IMR90; format: cell-based; conditions: Homo sapiens, IMR-90, 72 h; IMR90, Lung fibroblasts; read-out: Anti-proliferative activity, 72-h MTT IC50
Procedure: as §1

MCF7 = experiment: 72-h MTT cytotoxicity assay, MCF7; format: cell-based; conditions: Homo sapiens, MCF7, Breast adenocarcinoma, read-out: Anti-proliferative activity, 72-h MTT IC50
Procedure: as §1

p53 = p53 reporter gene assay (U2OS-derived luciferase reporter cell line); conditions: for Fold induction of luciferase activity: compared to basal luciferase activity, 16-h time point, at concentration of maximal induction; for Concentration (test compound concentration at which the p53 induction was maximal): p53 reporter, U2OS-derived cell line
AGS = experiment: 72-h MTT cytotoxicity assay, AGS; format: cell-based; conditions: Homo sapiens
Outline: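 Cell-based anti-proliferative read-out. p53 and HDM2 status differ by line: AGS (gastric adenocarcinoma) wild-type p53; SJSA-1 (multipotential bone sarcoma) wild-type p53 plus HDM2 overexpression; H1299 (large cell lung carcinoma) p53 null, HDM2 low.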

MCF7 or H1299 cells = experiment: Cell cycle distribution, propidium iodide flow cytometry; format: cell-based, human; conditions: 5 times IC50
Procedure: Cells were stained with propidium iodide and the cell cycle position was determined using a flow cytometer.

carcinoma cell lines = experiment: 72-h MTT panel, average carcinomas; format: cell-based; conditions: Homo sapiens, average over carcinoma cell lines, read-out: Anti-proliferative activity, 72-h MTT IC50, Average carcinomas
Procedure: as §1
This differential selectivity further supports the notion that the bisarylsulfonamides modulate cellular HDM2 function. It is known that HDM2 amplification is particularly common in soft tissue sarcomas and osteosarcomas [Momand J et al, ibid; Bartel F, Meye A, Wurl P, Kappler M, Bache M, Lautenschlager C, Grunbaum U, Schmidt H, Taubert H; Int. J. Cancer 2001; 95: 168-175].

SJSA-1 = experiment: Combination treatment with cisplatin or etoposide, MTT, SJSA-1; format: cell-based, human
From the text: It is well established that radiotherapy and most current forms of chemotherapy cause extensive genetic damage and induction of the p53-dependent apoptotic pathway, which determines the important role of this tumor suppressor protein in cancer therapy. HDM2, on the other hand, as a transcriptional product and negative regulator pf p53, would destabilise p53 and diminish its pro-apoptotic function. Inhibitors of the p53-HDM2 negative feedback loop (e.g. compounds disrupting the p53-HDM2 complex) are expected to synergise with cytotoxic agents for induction of p53 and subsequent apoptosis. […] Both chemotherapeutic agents were used in the concentration range of 100-0.19 μM.

[2] = 72-h MTT, Table 1, read-out: IC50 Anti-proliferative effect on cell line AGS
[3] = 72 h, Gastric adenocarcinoma, Table 2, read-out: Anti-proliferative activity, 72-h MTT IC50

Row | Fold induction of luciferase activity (p53) [fold] | IC50 (carcinoma cell lines) [µM] | IC50 of etoposide, fold lower in cells pre-treated with 2 (SJSA-1; 2 added 6 hours before etoposide) [fold] | IC50 (SJSA-1; Homo sapiens, MTT, 72 hours, Table 5, read-out: IC50, agent alone) [µM] | Structure (SMILES) | caspase activity (H1299 cells) | cell rounding [1] | IC50 (HCT116) [µM] | IC50 (Saos-2) [µM] | IC50 (IMR90) [µM] | IC50 (MCF7) [µM] | Concentration (test compound concentration at which the p53 induction was maximal) (p53) [µM] | IC50 (AGS; [2]) [µM] | IC50 (AGS; [3]) [µM] | IC50 (AGS; Example 9, read-out: anti-proliferative IC50 concentration determined for each cell line) [µM] | cell cycle arrest (MCF7 or H1299 cells) | sub-G1 cells, indicative of apoptosis (MCF7 or H1299 cells) | potency increase of cisplatin (SJSA-1; 2 added prior to the treatment with cisplatin) [fold]
1 | 231 | 3.1 ± 1.2 | 726 | 14 | O=[N+]([O-])c1cc(S(=O)(=O)Nc2ccc(Cl)cc2)sc1Cl [Compound 2, 5-Chloro-4-nitrothiophene-2-sulfonic acid (4-chlorophenyl)-amide] | detected by four hours | Rapid cell rounding was detected in all cell types tested | 2.8 | 9.5 | 23.1 | 2.7 | 6 | 1.1 ± 0.2 | 1.2 | 1 | no detectable arrest at any phase of the cell cycle | induced sub-G1 cells | 357
2 | 200 | 3.8 ± 1.8 |  |  | O=[N+]([O-])c1cc(S(=O)(=O)Nc2ccc(F)cc2)sc1Cl [Compound 3, 5-Chloro-4-nitrothiophene-2-sulfonic acid (4-fluorophenyl)amide] |  |  | 3.5 | 8.9 | 19.8 | 1.9 | 6 | 1.5 ± 0.3 | 1.7 |  |  |  | 
3 | 84 | 4.9 ± 2.3 |  |  | O=[N+]([O-])c1cc(S(=O)(=O)Nc2ccc(C(F)(F)F)cc2)sc1Cl [Compound 6, 5-Chloro-4-nitrothiophene-2-sulfonic acid (4-trifluoromethylphenyl)amide] |  |  | 6 | 12 | 29.8 | 3.3 | 5.5 | 2 ± 0.3 | 2.2 |  |  |  | 
